Results published in US20100316732A1, “BEVERAGE COMPOSITIONS FOR THE PROMOTION OF JOINT HEALTH IN COMPANION ANIMALS” (priority 2008, published 2010).

Test: Maximum solubility per liter of the active ingredients
Assay type: physicochemical
Settings: active ingredient of aqueous canine water formula

[Cl-].[Cl-].[Mg+2] [Magnium chloride]
Maximum Solubility/Liter: 1100 µg/mL
